The structures appear in SMILES notation.

Consider one compound from patent publication US20230000842A1, “METHODS OF TREATING CARTILAGE DISORDERS THROUGH INHIBITION OF CLK AND DYRK” (SAMUMED, LLC, priority 2019, published 2023).

The test system of one assay is SIRT1 (pSer27, pSer47). The assay is described as follows: Western blot of phospho-SIRT1 with IL1-β. Format: cell-based, human. The settings on record: hMSCs and chondrocytes; in the presence of IL-1β; compared to DMSO. On the procedure:
(§1) Cells were plated at 300,000 cells per well in a 6-well plate and following an overnight incubation, treated with DMSO (vehicle control) or indicated compounds and incubated at 37° C. and 5% CO2 for the indicated times. Following treatment, cells were trypsinized and pelleted by centrifugation and washed with PBS. Total protein from the cell pellet was extracted or for fractionation, protein was fractionated into cytoplasmic and nuclear fractions using a Nuclear and Cytoplasmic Extraction Reagents (NE-PER™) kit containing Halt™ protease and phosphatase inhibitors (Thermo Fisher). Protein concentrations were quantified using the Pierce Micro BCA protein assay kit (Thermo Fisher). […] Blots were blocked with non-fat dry milk. Primary antibodies were incubated overnight at 4° C. β-actin and Lamin B1 were used as loading controls (Supplementary Table S2 for primary antibodies). Mouse and rabbit horseradish peroxidase (HRP)-conjugated secondary antibodies were diluted in 5% blocking buffer in TBS-T. Protein-antibody complexes were detected by chemiluminescence using the SuperSignal West Femto Chemiluminescent Substrate (Thermo Fisher) and images were captured with a UVP ChemiDocIt2 camera system (Fisher Scientific, Hampton, N.H.).

Assay [1] concerns NF-κB pathway gene expression in THP1 cells. The assay is described as follows: qRT-PCR of NF-κB pathway components in THP1 cells stimulated with LPS. Format: cell-based. On the procedure:
Fold change relative to unstimulated control is shown (n=3, Mean±95% CI, *p<0.05, **p<0.01, ***p<0.001, one-way ANOVA).
Total RNA was isolated using a RNAeasy kit (Qiagen) as per the manufacturer's protocol. cDNA was synthesized using the iScript cDNA Synthesis Kit (Bio-Rad). Quantitative real-time PCR was performed using the CFX384 (Bio-Rad) using gene specific SYBR-green or TaqMan™ primers. Relative gene expression was determined by normalizing to housekeeping genes using the ΔΔCt method. Data was collected from at least 3 replicates per assay.

In a further assay the test system is FOXO1. The assay is described as follows: Western blot and immunofluorescence of FOXO1 with IL1-β. Format: cell-based, human. As to conditions: hMSCs and chondrocytes; in the presence of IL-1β; compared to DMSO. On the procedure:
Cells were stained with anti-FOXO1 antibody (red) and DAPI nuclear stain (blue).
as §1

For another assay, the system named is THP1 cells. In words: Western blot of phospho- and total proteins in THP1 cells stimulated with LPS. Format: cell-based. As to the method:
as §1

Assay [2] relates to primary human mesenchymal stem cells (hMSCs). The assay is described as follows: Chondrogenesis screening using primary human mesenchymal stem cells. Format: cell-based. As to conditions: Homo sapiens, Mesenchymal stem cells. The method, boiled down:
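Primary hMSCs at passage 3–6 were treated across compound concentrations, with TGF-β3 as positive control. Chondrogenic nodule area per well was normalized to 3 DMSO wells on the same plate (fold over DMSO, 2–3 replicates). EC50, maximum activity and the dose reaching it were derived.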

Assay [3] deals with Wnt pathway activity (SW480 colon carcinoma cells stably expressing the Sp5-Luc reporter). In words: Wnt pathway activity screening assay (Sp5-Luc reporter gene assay). As to conditions: Homo sapiens, SW480.
The test system of assay [4] is Wnt pathway gene expression in hMSCs. In words: Nanostring nCounter Wnt Pathways panel in hMSCs. As to conditions: >2-fold change, p<0.05, FDR corrected. Format: cell-based, human. As to the method: FIGS. 2D and 2E depict gene expression changes of selected genes from FIG. 2C by qRT-PCR (n=3, Mean±95% CI, *p<0.05, **p<0.01, ***p<0.001, one-way ANOVA). […] Downregulation of AXIN2, TCF7, LRP5, BAMBI, NKD1, PAI-1, LRP6, FZD6, FZD7, PITX2, ERBB2, and CTGF gene expression and increased levels of Wnt pathway inhibitors SFRP2 and DACT1 were determined by qPCR.
Fifty nanograms of RNA was hybridized with Tagsets and probe pools from the nCounter® Vantage 3D™ Wnt Pathways Panel (NanoString Technologies) for 16 hrs at 67° C. Hybridized samples were ran on a nCounter® SPRINT Profiler (NanoString Technologies). Nanostring gene counts were normalized by the geometric mean of all housekeeping genes by nSolver (v3.0). P-values from normalized counts were calculated by an independent t-test and adjusted by the false discovery rate (FDR) method (Benjamini & Hochberg) to correct for multiple comparisons using R (v3.4.2). Data was plotted using R (v3.4.2).

For the compound `CC(C)CC(=O)Nc1cncc(-c2ccc3[nH]nc(-c4nc5c(-c6cccc(F)c6)cncc5[nH]4)c3c2)c1` [compound 123], in the assay on SIRT1 (pSer27, pSer47), the “phosphorylation of SIRT1 (pSer27, pSer47)” value was “dose-dependently and more potently inhibited”. Besides, in assay [1], the “LPS-stimulated gene expression of NF-κB components (RELA, RELB)” value is on record as “inhibited”; the “NF-κB inhibitors (NFKBIA, NFKBIB, IKKβ, IKKγ) expression” value was “without effects”; the “expression of NF-κB pathway genes (NFKB1, NFKB2, RELA, RELB and BCL3)” value was “inhibited”. In addition, in the assay with FOXO1, the “phosphorylation of FOXO1” value was “dose-dependently inhibited”; the “total FOXO1 protein levels and nuclear localization” value was “increases”. In the assay with THP1 cells (4 hrs, compared to DMSO), the “AKT, JNK1, cJUN, p38/MAPK and TLR4” value is on record as “not inhibited”; the “phospho-STAT3 (S727, Y705), phospho- and total NF-κB (p105/p50), and phospho-FOXO1/3a” value is reported as “dose-dependently decreased”. In the assay with THP1 cells (20 hrs), the “AKT, cJUN, p38/MAPK, and TLR4” value is given as “remained unchanged”; the “NF-κB, STAT3, JNK1 and FOXO1/3a phosphorylation” value was “robustly inhibited”. Also, the “phospho- or total NF-κB (p105/p50)” value with THP1 cells (THP1 cells + LPS, 10 mins, 30 mins, 1 hr or 2 hrs) is “no effects”. The “phospho-STAT3 (Y705)” value with THP1 cells (THP1 cells + LPS, 1 hr, 2 hrs, 4 hrs and 20 hrs) is given as “inhibited”. In addition, the “phospho- and total NF-κB” value in the assay with THP1 cells (THP1 cells + LPS, 4 hrs and 20 hrs) is reported as “decreased”. Moreover, the “total STAT3” value with THP1 cells (THP1 cells + LPS, any timepoint) is given as “no effects”. In addition, the Emax in assay [2] (hMSC chondrogenesis, maximum activity relative to TGF-β3 (10 ng/mL) positive control, read-out: Max. Activity as % TGF-β3 activity) came to 397%. In addition, in assay [2] (read-out: Conc (nM) of 50% TGF-β3 activity), the EC50 came out at 30 nM. In addition, the EC50 in assay [3] was 3.4 nM. Further, in assay [4], the “number of Wnt pathway genes downregulated” value turned out to be 19 genes and the “number of Wnt pathway genes upregulated” value worked out at 9 genes.
